Experimental data from the supplement of paper PMC10307832.

Tests used:
Assay in all cases: relative viability (nuclei count vs DMSO), 5 days (fraction); higher = more cells survive
[1] = compound: CC1=C(C(=O)N2C=CSC2=N1)CCN3CCC(=C(C4=CC=CC=C4)C5=CC=C(C=C5)F)CC3 + CS(=O)(=O)N1CCN(Cc2cc3nc(-c4cccc5[nH]ncc45)nc(N4CCOCC4)c3s2)CC1 [Pictilisib] (partner 1 µM)
Summary of the method: (§1)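 After 5 days of treatment, lung cancer cells in 1536-well plates were fixed and stained in a single step (final 0.05% Triton X-100, 1% formaldehyde, 1 ug/ml Hoechst) and their nuclei counted on 4× images. Treatment had been applied by pin tool the day after seeding as one drug alone or as a fixed anchor-drug dose with five library-drug doses (not always all listed) in √10 steps. Relative viability is the nuclei count of treated wells divided by that of vehicle wells, and values are medians of duplicate plates.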

[2] = compound: CC1=C(C(=O)N2C=CSC2=N1)CCN3CCC(=C(C4=CC=CC=C4)C5=CC=C(C=C5)F)CC3 + CC(=O)c1c(C)c2cnc(Nc3ccc(N4CCNCC4)cn3)nc2n(C2CCCC2)c1=O [Palbociclib] (partner 0.5 µM)
Summary of the method: as §1

[3] = compound: CC1=C(C(=O)N2C=CSC2=N1)CCN3CCC(=C(C4=CC=CC=C4)C5=CC=C(C=C5)F)CC3 + N=C(N)NC(=N)NCCc1ccccc1 [Phenformin] (partner 250 µM)
Summary of the method: as §1

[4] = compound: CC1=C(C(=O)N2C=CSC2=N1)CCN3CCC(=C(C4=CC=CC=C4)C5=CC=C(C=C5)F)CC3 + Nc1ncn([C@H]2C[C@H](O)[C@@H](CO)O2)c(=O)n1 [Decitabine] (partner 2 µM)
Summary of the method: as §1

| Cell Line | relative viability ([1]; first compound 0.253 µM) | relative viability ([1]; first compound 0.8 µM) | relative viability ([1]; first compound 2.53 µM) | relative viability ([1]; first compound 8 µM) | relative viability ([2]; first compound 0.08 µM) | relative viability ([2]; first compound 0.253 µM) | relative viability ([2]; first compound 0.8 µM) | relative viability ([2]; first compound 2.53 µM) | relative viability ([2]; first compound 8 µM) | relative viability ([3]; first compound 0.08 µM) | relative viability ([3]; first compound 0.253 µM) | relative viability ([3]; first compound 0.8 µM) | relative viability ([3]; first compound 2.53 µM) | relative viability ([3]; first compound 8 µM) | relative viability ([4]; first compound 0.08 µM) | relative viability ([4]; first compound 0.253 µM) | relative viability ([4]; first compound 0.8 µM) | relative viability ([4]; first compound 2.53 µM) | relative viability ([4]; first compound 8 µM) | relative viability ([1]; first compound 0.08 µM) |
| --- | --- | --- | --- | --- | --- | --- | --- | --- | --- | --- | --- | --- | --- | --- | --- | --- | --- | --- | --- | --- |
| EPLC-272H | 0.332 | 0.259 | 0.306 | 0.359 | 0.321 | 0.316 | 0.33 | 0.329 | 0.337 | 0.333 | 0.328 | 0.286 | 0.286 | 0.391 | 0.431 | 0.312 | 0.37 | 0.396 | 0.376 | – |
| NCI-H2170 | 0.287 | 0.256 | 0.304 | 0.338 | 0.396 | 0.405 | 0.36 | 0.37 | 0.344 | 0.42 | 0.42 | 0.37 | 0.417 | 0.39 | 0.522 | 0.461 | 0.487 | 0.457 | 0.395 | 0.295 |
| LXF-289 | 0.953 | 0.804 | 0.674 | 0.724 | 0.595 | 0.666 | 0.604 | 0.599 | 0.469 | 0.463 | 0.542 | 0.508 | 0.482 | 0.376 | 0.381 | 0.43 | 0.406 | 0.426 | 0.349 | 0.824 |
| NCI-H838 | 0.489 | 0.466 | 0.58 | 0.444 | 0.207 | 0.213 | 0.268 | 0.207 | 0.191 | 0.629 | 0.533 | 0.569 | 0.576 | 0.464 | 0.488 | 0.459 | 0.472 | 0.547 | 0.414 | 0.439 |
| NCI-H2347 | 0.691 | 0.764 | 0.394 | 0.614 | 0.358 | 0.428 | 0.434 | 0.442 | 0.461 | 0.299 | 0.403 | 0.317 | 0.421 | 0.397 | 0.375 | 0.693 | 0.667 | 0.621 | 0.513 | 0.417 |
| BEN | 0.602 | 0.562 | 0.516 | 0.505 | 0.455 | 0.498 | 0.479 | 0.558 | 0.498 | 0.255 | 0.281 | 0.247 | 0.316 | 0.21 | 0.807 | 0.703 | 0.702 | 0.737 | 0.708 | 0.521 |
| LU99A | 0.316 | 0.342 | 0.389 | 0.311 | 0.383 | 0.367 | 0.416 | 0.387 | 0.447 | 0.777 | 0.846 | 0.767 | 0.841 | 0.658 | 1.18 | 0.988 | 0.763 | 0.989 | 0.907 | 0.377 |
| NCI-H1755 | 0.482 | 0.42 | 0.423 | 0.37 | 0.433 | 0.429 | 0.395 | 0.426 | 0.432 | 0.681 | 0.659 | 0.578 | 0.66 | 0.565 | 0.677 | 0.784 | 0.721 | 0.66 | 0.754 | 0.387 |
